In US20030100567A1, “Tyrosine kinase inhibitors” (priority 2001, published 2003):

Tests used:
Settings in all cases: in vivo
Pharmacokinetics in dog = test: Pharmacokinetics in dog
Pharmacokinetics in rat = test: Pharmacokinetics in rat
[1] = Pharmacokinetics in rhesus monkey

SMILES	clearance (Pharmacokinetics in dog) [mL/min/kg]	half-life (Pharmacokinetics in dog) [h]	bioavailability (Pharmacokinetics in dog) [%]	clearance (Pharmacokinetics in rat) [mL/min/kg]	half-life (Pharmacokinetics in rat) [h]	bioavailability (Pharmacokinetics in rat) [%]	bioavailability [1] [%]	clearance [1] [mL/min/kg]	half-life [1] [h]
N#Cc1cnc(Nc2cc(CN3CCN(C(N)=O)CC3)ccn2)s1	2.6	2.1	–	–	–	–	–	–	–
CN(C)C(=O)N1CCN(Cc2ccnc(Nc3ncc(C#N)s3)c2)CC1	3.6	3.4	49	15.5	1.6	–	–	–	–
CNC(=O)N1CCN(Cc2ccnc(Nc3ncc(C#N)s3)c2)CC1 [Compound 4-4, 4-[2-(5-cyano-thiazol-2-ylamino)-pyridin-4-ylmethyl]-piperazine-1-carboxylic acid methylamide]	0.5	17.4	99	10.7	1.9	49	43	13.4	1.7
CC(=O)N1CCN(Cc2ccnc(Nc3ncc(C#N)s3)c2C)CC1	14	1.4	–	–	–	–	–	–	–
CS(=O)(=O)C1CCN(Cc2ccnc(Nc3ncc(C#N)s3)c2)CC1 [Compound 5-6, 2-[(4-{[4-(methylsulfonyl)piperidin-1-yl]methyl}pyridin-2-yl)amino]-1,3-thiazole-5-carbonitrile]	1.8	6.3	95	16.3	1.1	70	67	3	5.5
